In patent USRE43029E1, “Process for preparing a creatine heterocyclic acid salt and method of use” (Bio-Engineered Supplements & Nutrition, Inc., priority 2003, dated 2011):

How the values were obtained:
[1] = cited from earlier work
[2] = cited from earlier work; remark: listed apart in the source
[3] = four 5 gram per day; 30 second bouts of maximal isokinetic cycling; cited from earlier work
[4] = 20 grams a day for 5 days; five of the eight subjects; cited from earlier work
[5] = in vivo; cited from earlier work
[6] = TriCreatine Orotate method of use, 4 weeks post-workout oral supplementation; assay type: in vivo, human; settings: weight trained person, 5 grams orally post workout, end of 4 week period
Description: In this example a experienced weight trained person orally consumes 5 grams of tricreatine orotate post workout for 4 weeks with beverage. Glucose or any insulin potentiating compound may added for even greater results. In this instance the tricreatine orotate is incorporated into free powder mixture of flavoring agents and D-glucose, which is then combined with water. Once in the plasma tricreatine orotate then exerts a synergistic lean tissue promoting effect due to the anabolic actions of creatine and orotic acid. The creatine enhances phophocreatine resynthesis and attracts water to intercellular component of the muscle cell, which in turn activates protein synthesis while the orotic acid promotes uridine phosphates and glycogen synthesis. The previously mentioned physiological functions lead to increases in lean body mass, strength, endurance, recovery and loss of fat tissue. At the end of the 4 week period the individual reported a 6 pound weight gain, a 20 pound increase in […] 1 repetition maximum bench press, and a 5 repetition increase in […] initial 70 percent maximum bench press. These increases contribute to the regulation of athletic function and thus lead to enhanced physical performance.

Question: What does the source list for `CN(CC(=O)O)C(=N)N.O` [creatine monohydrate]?
Answer: rise in plasma creatine concentration ([1]; 1 gram dose): only a modest rise; time of mean peak plasma creatine ([1]; 5 gram dose): 1 h; total creatine content of the quadriceps ([2]; 5 grams four to six times a day for 2 or more days): significant increase; creatine uptake ([2]; first two days of supplementation, six 5 gram doses): 32%; creatine taken up measured as phosphocreatine (PCr) ([2]; in vivo): ≥ 20%

Question: What does the source list for `CN(CC(=O)O)C(=N)N` [creatine]?
Answer: peak power output and mean power output [3]: significantly increased; muscle total creatine concentration and phosphocreatine resynthesis [4]: substantially increased

Question: For `O=C(O)c1cc(=O)[nH]c(=O)[nH]1` [orotic acid, 1,2,3,6-Tetrahydro-2,6-dioxo-4-pyrimidecarboxylic acid], which “growth and functional maturation of animals” value [5] is on record?
Answer: significant acceleration

Question: What does the source list for Tricreatine orotate?
Answer: increase in 1 repetition maximum bench press [6]: 20 pound; increase in initial 70 percent maximum bench press [6]: 5 repetition; weight gain [6]: 6 pound
